Assay results reported in ChEMBL document CHEMBL2074267, “Dexamethasone modulation of multidrug transporters in normal tissues” (FEBS Lett, 1999).

Experiments:
[1] = target: T1, ATP-binding cassette sub-family C member 2 (Rattus norvegicus, UniProt Q63120); assay: (§1) TP_TRANSPORTER: Western in vivo, kidney of SD rat; assay type: functional, organism-based, Sprague-Dawley
[2] = target: T1, ATP-binding cassette sub-family C member 2; assay: TP_TRANSPORTER: Western in vivo, liver of SD rat; assay type: functional, organism-based, Sprague-Dawley
[3] = target: Multidrug resistance protein 1a (Rattus norvegicus) (UniProt Q6PSM0); assay: as §1; assay type: functional, organism-based; details: Sprague-Dawley
Multidrug resistance protein 1a (Rattus norvegicus), sequence (Q6PSM0 as listed by the source): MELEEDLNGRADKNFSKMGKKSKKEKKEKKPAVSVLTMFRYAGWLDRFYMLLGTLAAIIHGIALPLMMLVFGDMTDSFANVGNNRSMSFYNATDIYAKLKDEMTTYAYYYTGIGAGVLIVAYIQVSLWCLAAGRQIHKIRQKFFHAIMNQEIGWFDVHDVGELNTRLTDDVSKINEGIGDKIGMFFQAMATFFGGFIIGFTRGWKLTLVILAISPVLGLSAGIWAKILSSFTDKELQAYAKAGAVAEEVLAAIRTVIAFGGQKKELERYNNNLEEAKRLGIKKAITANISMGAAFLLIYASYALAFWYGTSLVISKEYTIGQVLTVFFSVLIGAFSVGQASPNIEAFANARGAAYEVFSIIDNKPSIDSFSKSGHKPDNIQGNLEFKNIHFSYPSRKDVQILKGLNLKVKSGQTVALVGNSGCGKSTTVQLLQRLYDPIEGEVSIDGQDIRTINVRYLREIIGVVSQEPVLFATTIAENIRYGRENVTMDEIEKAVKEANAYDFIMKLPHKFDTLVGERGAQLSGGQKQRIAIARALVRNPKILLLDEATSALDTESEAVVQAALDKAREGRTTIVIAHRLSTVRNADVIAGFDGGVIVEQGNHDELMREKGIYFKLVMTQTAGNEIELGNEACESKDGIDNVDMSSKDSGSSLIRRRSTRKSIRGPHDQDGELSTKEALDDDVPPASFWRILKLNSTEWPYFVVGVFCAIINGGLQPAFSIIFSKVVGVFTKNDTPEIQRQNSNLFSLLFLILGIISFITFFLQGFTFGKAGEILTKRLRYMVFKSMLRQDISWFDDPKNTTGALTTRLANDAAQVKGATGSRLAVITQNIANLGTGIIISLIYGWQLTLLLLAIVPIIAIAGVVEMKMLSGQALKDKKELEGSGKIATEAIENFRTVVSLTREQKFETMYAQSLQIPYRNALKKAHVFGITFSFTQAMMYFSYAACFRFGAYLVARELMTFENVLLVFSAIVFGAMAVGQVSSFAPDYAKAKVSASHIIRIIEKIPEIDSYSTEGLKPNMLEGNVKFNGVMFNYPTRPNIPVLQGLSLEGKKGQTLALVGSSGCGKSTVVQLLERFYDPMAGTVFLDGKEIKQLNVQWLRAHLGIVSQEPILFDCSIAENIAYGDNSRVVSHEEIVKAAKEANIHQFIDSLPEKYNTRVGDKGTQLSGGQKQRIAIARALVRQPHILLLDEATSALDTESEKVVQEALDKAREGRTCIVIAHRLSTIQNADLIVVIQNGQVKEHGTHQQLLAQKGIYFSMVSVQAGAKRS

T1 sequence (Q63120 whole entry): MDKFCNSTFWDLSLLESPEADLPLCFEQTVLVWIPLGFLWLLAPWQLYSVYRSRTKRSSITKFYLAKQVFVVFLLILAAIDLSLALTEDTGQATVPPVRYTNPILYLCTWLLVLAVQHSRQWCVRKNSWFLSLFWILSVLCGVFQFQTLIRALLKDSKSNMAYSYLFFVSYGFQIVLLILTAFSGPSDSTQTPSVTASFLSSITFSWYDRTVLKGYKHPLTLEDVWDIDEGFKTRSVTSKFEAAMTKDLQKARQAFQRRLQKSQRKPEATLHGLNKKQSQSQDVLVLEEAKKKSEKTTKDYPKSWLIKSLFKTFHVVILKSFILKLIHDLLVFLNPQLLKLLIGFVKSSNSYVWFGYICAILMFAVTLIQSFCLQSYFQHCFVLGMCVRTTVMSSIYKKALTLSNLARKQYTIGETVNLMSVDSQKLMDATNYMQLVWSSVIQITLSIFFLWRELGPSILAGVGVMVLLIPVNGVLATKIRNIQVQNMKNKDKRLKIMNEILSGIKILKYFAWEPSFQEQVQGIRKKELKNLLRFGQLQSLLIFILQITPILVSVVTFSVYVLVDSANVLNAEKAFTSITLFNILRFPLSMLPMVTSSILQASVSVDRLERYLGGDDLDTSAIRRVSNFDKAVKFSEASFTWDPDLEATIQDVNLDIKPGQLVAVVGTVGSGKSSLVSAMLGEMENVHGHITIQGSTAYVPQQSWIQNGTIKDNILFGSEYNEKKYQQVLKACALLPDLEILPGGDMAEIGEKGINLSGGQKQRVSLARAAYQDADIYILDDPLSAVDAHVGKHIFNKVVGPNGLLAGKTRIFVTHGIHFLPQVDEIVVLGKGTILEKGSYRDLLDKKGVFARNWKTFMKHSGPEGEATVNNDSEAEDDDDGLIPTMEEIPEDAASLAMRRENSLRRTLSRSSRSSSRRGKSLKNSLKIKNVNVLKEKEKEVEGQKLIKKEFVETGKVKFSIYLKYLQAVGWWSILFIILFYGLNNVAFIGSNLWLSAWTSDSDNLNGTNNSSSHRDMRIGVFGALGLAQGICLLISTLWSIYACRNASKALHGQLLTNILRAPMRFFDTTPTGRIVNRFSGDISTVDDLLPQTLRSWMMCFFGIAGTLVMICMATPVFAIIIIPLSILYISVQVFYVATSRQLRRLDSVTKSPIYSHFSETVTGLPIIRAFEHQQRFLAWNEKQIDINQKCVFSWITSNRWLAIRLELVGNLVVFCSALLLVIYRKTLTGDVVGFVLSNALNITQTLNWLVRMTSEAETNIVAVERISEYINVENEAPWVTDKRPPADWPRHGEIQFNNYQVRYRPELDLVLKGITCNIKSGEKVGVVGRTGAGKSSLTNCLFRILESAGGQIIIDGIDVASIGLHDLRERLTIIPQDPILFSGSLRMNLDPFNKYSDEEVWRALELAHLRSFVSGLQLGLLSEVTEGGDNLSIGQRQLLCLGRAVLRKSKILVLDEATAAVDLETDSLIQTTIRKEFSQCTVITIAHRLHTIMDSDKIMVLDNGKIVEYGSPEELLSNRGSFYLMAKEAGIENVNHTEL

## C[C@@H]1C[C@H]2[C@@H]3CCC4=CC(=O)C=C[C@]4(C)[C@@]3(F)[C@@H](O)C[C@]2(C)[C@@]1(O)C(=O)CO [DEXAMETHASONE]
[1]
  Activity: inducer [+]
[2]
  Activity: inducer [+]
[3]
  Activity: inducer [Decrease]
